The values that follow come from patent US20240190889A1, “NEW CYCLOPENTA-THIENO-DIAZEPINE DERIVATIVES AS GABA A GAMMA1 POSITIVE ALLOSTERIC MODULATORS” (Hoffmann-La Roche Inc., priority 2021, published 2024).

pKi: −log10 of the molar value. Where two headings read alike, the source gives them in different places.

Test [1] addresses human GABAA α1β3γ2 receptor (Homo sapiens (Human), UniProt P14867+P18507). Put plainly: Radioligand binding assay, competition for [3H]Flumazenil, γ2-containing GABAA subtypes. The note with it: for γ2/γ1 Selectivity Ratio: Ki α1β3γ2 (nM)/Ki α2β2γ1 (nM); for LogSel: Log[Ki α1β3γ2 (nM)/Ki α2β2γ1 (nM)]. How it is done:
Membrane Preparation and Binding Assay for γ2-containing GABAA Subtypes
The affinity of compounds at GABAA γ2 subunit-containing receptors was measured by competition for [^3H]Flumazenil (81.1 Ci/mmol; Roche) binding to HEK293F cells expressing human (transiently transfected) receptors of composition α1β3γ2.
Harvested pellets from HEK293F cells expressing the different GABAA γ2 receptor subtypes were resuspended in Mannitol Buffer pH 7,2-7,4 and processed as described above for the cells expressing the GABAA γ1 subunit-containing receptors.
Assays were incubated to equilibrium for 1 hour at 4° C, and harvested onto GF/C uni-filters (Packard) by filtration using a Packard harvester and washing with ice-cold wash buffer (50 mM Tris; pH 7.5). After anhydrousing, filter-retained radioactivity was detected by liquid scintillation counting. Ki values were calculated using Excel-Fit (Microsoft) and are the means of two determinations.

For test [2], the target named is h-GABA-A α2β2γ1 receptor expressed in Xenopus laevis oocytes (Homo sapiens (Human), UniProt P47869+Q8N1C3). The test is described as follows: Two-electrode voltage clamp electrophysiology in Xenopus oocytes expressing GABAA receptors. In kind it is cell-based. The note with it: for Efficacy (GABA)%: % modulation of GABA EC20 = 100*(Fold increase-1), compound at 30-fold Ki α2β2γ1; for Fold increase h-GABA-A α2β2γ1 oocyte @ 30-fold Ki: GABA EC20, test compound at approx. 30-fold its Ki α2β2γ1, at least 3 oocytes. The source says:
Functional Expression of GABAA Receptors:
Xenopus Oocytes Preparation
Xenopus laevis oocytes at maturation stages V-VI were used for the expression of cloned mRNA encoding GABAA receptor subunits. Oocytes ready for RNA micro-injection were bought from Ecocyte, Castrop-Rauxel, Germany and stored in modified Barth's medium (composition in mM: NaCl 88, KCl 1, NaHCO3 2.4, HEPES 10, MgSO4 0.82, CaNO3 0.33, CaCl2 0.33, pH=7.5) at 20 C. until the experiment.
Xenopus Oocytes Microinjection
Oocytes were plated in 96-well plates for microinjection using the Roboinject automated instrument (MultiChannelSystems, Reutlingen, Germany). Approximately 50 nL of an aqueous solution containing the RNA transcripts for the subunits of the desired GABAA receptor subtype was injected into each oocyte. […] Oocytes were kept in modified Barth's medium (composition in mM: NaCl 88, KCl 1, NaHCO3 […], HEPES 10, MgSO4 0.82, CaNO3 0.33, CaCl2 0.33, pH=7.5) at 20° C. until the experiment.
Electrophysiological experiments were performed using the Roboocyte instrument (MultiChannelSystems, Reutlingen, Germany) on days 3 to 5 after the micro-injection of mRNA. During the experiment the oocytes were constantly superfused by a solution containing (in mM) NaCl 90, KCl 1, HEPES 5, MgCl: 1, CaCl, 1 (pH 7.4). Oocytes were impaled by two glass microelectrodes (resistance: 0.5-0.8 MS2) which were filled with a solution containing KCl 1M +K-acetate 1.5 M and voltage-clamped to −80 mV. The recordings were performed at room temperature using the Roboocyte two-electrode voltage clamp system (Multichannelsystem). After an initial equilibration period of 1.5 min GABA was added for 1.5 min at a concentration evoking approximately 20% of a maximal current response (EC20). After another rest interval of 2.5 min GABA was again added evoking a response of similar amplitude and shape. […] Current traces were recorded at a digitization rate of 10 Hz during and shortly before and after the GABA application.
Each compound and concentration was tested on at least 3 oocytes. Different oocytes were used for different compound concentrations.
For the analysis, the digitized current traces of the first and second GABA response were superimposed and, if necessary, rescaled to equal maximal amplitudes. The ratio between the two responses during the time interval of test compound application was calculated point by point. The extremum of the resulting “ratio trace” was taken as the efficacy (“Fold increase”) of the compound expressed as “% modulation of GABA EC” (100* (Fold increase-1)).

Test [3] addresses human GABAA α2β2γ1 receptor (Homo sapiens (Human), UniProt P47869+Q8N1C3). Put plainly: Radioligand binding assay, competition for [3H]RO7239181, γ1-containing GABAA subtypes. The procedure:
Membrane Preparation and Binding Assay for γ1-containing GABAA Subtypes
The affinity of compounds at GABAA γ1 subunit-containing receptors was measured by competition for [^3H]RO7239181 (67.3 Ci/mmol: Roche) binding to membranes from HEK293F cells (ThermoFisher R79007) expressing human (transiently transfected) receptors of composition α5β2γ1, α2β2γ1, α1β2γ1.
Harvested pellets from HEK293F cells expressing the different GABAA receptor subtypes were resuspended in Mannitol Buffer pH 7.2-7.4 (Mannitol 0.29 M, Tricthylamine 10 mM. Acetic acid 10 mM. EDTA 1 mM plus protease inhibitors (20 tablets Complete. Roche Diagnostics Cat. No. 05 056 489 001 per liter)), washed two times and then resuspended at 1:10 to 1:15 dilution in the same buffer. Cell disruption was performed by stirring the suspension in a Parr vessel #4637 at 435 psi for 15 minutes, and then the suspensions were centrifuged at 1000×g for 15 minutes at 4° C. (Beckman Avanti J-HC: rotor JS-4.2). The supernatant (S1) was transferred in a 21 Schott flask and the pellet (P1) was resuspended with Mannitol Buffer up to 175 ml. The resuspended pellet was transferred into a 250 ml Corning centrifugal beaker and centrifuged at 1500 ×g for 10 minutes at 4° C. (Beckman Avanti J-HC: rotor JS-4.2). The supernatant (S1) was then transferred in the 21 Schott flask and the pellet was discarded. The supernatants (S1) were centrifuged in 500ml Beckman polypropylene centrifugal beaker at 15 000×g for 30 minutes at 4° C. (Beckman Avanti J-20 XP; rotor JLA-10.500). The pellet (P2) was resuspended with Mannitol Buffer 1:1 and frozen at −80° C. The supernatant (S2) was centrifuged in 100 ml Beckman polypropylene centrifugal tubes at 48000×g for 50 minutes at 4 °C (Beckman Avanti J-20 XP: rotor JA-18). The supernatant (S3) was discarded and the pellet (P3) was resuspended with 1:1 Mannitol Buffer. The P2 and P3 protein concentration was determined with the BIORAD Standard assay method with bovine serum albumin as standard and measured on the NANO-Drop 1000. The membrane suspension was aliquots (500μl per tube) and stored at −80° C. until required.
Membrane homogenates were resuspended and polytronised (Polytron PT1200E Kinematica AG) in Potassium Phosphate 10 mM, KCl 100 mM binding buffer at pH 7.4 to a final assay concentration determined with a previous experiment.
Radioligand binding assays were carried out in a volume of 200 μL (96-well plates) which contained 100 μL of cell membranes. […] Assays were incubated to equilibrium for 1 hour at 4° C. and then, membranes were filtered onto unifilter (96-well white microplate with bonded GF/C filters preincubated 20-50 minutes in 0.3% Polyethylenimine) with a Filtermate 196 harvester (Packard BioScience) and washed 4 times with cold Potassium Phosphate 10 mM pH 7.4. KCl 100 mM binding buffer. After anhydrousing, filter-retained radioactivity was detected by liquid scintillation counting. Ki values were calculated using Excel-Fit (Microsoft) and are the means of two determinations.

[4] abbreviates: read-out: Ki h-GABAA α2β2γ1, membranes from HEK293F cells, [3H]RO7239181 20-30 nM, mean of two determinations.

A word on the pKi: it is the negative decadic logarithm of the Ki, by convention in mol/L. For the compound `Fc1cccc(F)c1C1=NCc2nnc(C3CC3)n2-c2sc3c(c21)C[C@@H](C(F)F)C3` [Example 7, (13R)-3-cyclopropyl-13-(difluoromethyl)-9-(2,6-difluorophenyl)-16-thia-2,4,5,8-tetrazatetracyclo [8.6.0.02,6.011,15]hexadeca-1(10),3,5,8,11(15)-pentaene], in test [1], the negative logarithm of the Ki (pKi) was 6.52, the “γ2/γ1 Selectivity Ratio” value is listed as 47.3 and the LogSel was 1.67. In addition, in test [2], the “Efficacy (GABA)%” value is on record as 71% and the “Fold increase h-GABA-A α2β2γ1 oocyte @ 30-fold Ki” value worked out at 1.71. For the same compound, the pKi in test [3] was 8.19. The negative logarithm of the Ki (pKi) in test [3] (setting [4]) was 8.19.
For `C[C@@H]1N=C(c2c(F)cccc2F)c2c(sc3c2C[C@@H](C(F)F)C3)-n2c(C3CC3)nnc21` [Example 8, (7S,13R)-3-cyclopropyl-13-(difluoromethyl)-9-(2,6-difluorophenyl)-7-methyl-16-thia-2,4,5,8-tetrazatetracyclo [8.6.0.02,6.011,15]hexadeca-1(10),3,5,8,11(15)-pentaene], in test [1], the negative logarithm of the Ki (pKi) was 6.34, the “γ2/γ1 Selectivity Ratio” value is given as 99.2 and the LogSel worked out at 2.00. For the same compound, in test [2], the “Efficacy (GABA)%” value is given as 37% and the “Fold increase h-GABA-A α2β2γ1 oocyte @ 30-fold Ki” value worked out at 1.37. In test [3], this compound gave a pKi of 8.34. In addition, the pKi in test [3] (setting [4]) was 8.34.
In the case of `Cc1nnc2n1-c1sc3c(c1C(c1c(F)cccc1Cl)=N[C@H]2C)C[C@@H](C(F)F)C3` [Example 9, (7S,13R)-9-(2-chloro-6-fluoro-phenyl)-13-(difluoromethyl)-3,7-dimethyl-16-thia-2,4,5,8-tetrazatetracyclo [8.6.0.02,6.011,15]hexadeca-1(10),3,5,8,11(15)-pentaene], in test [1], the negative-log Ki (pKi) is 6.44, the “γ2/γ1 Selectivity Ratio” value is reported as 101.3 and the LogSel is 2.01. Also, in test [2], the “Efficacy (GABA)%” value was determined as 38% and the “Fold increase h-GABA-A α2β2γ1 oocyte @ 30-fold Ki” value is listed as 1.38. In test [3], this compound showed a pKi of 8.44. In addition, the pKi in test [3] (setting [4]) was 8.44.
As for `Fc1cccc(F)c1C1=NCc2nnc(-c3cccnn3)n2-c2sc3c(c21)C[C@@H](C(F)F)C3` [Example 10, (13R)-13-(difluoromethyl)-9-(2,6-difluorophenyl)-3-pyridazin-3-yl-16-thia-2,4,5,8-tetrazatetracyclo [8.6.0.02,6.011,15]hexadeca-1(10),3,5,8,11(15)-pentaene], in test [1], the pKi was 5.49, the “γ2/γ1 Selectivity Ratio” value is listed as 1090.8 and the LogSel is given as 3.04. Besides, in test [2], the “Efficacy (GABA)%” value stood at 47% and the “Fold increase h-GABA-A α2β2γ1 oocyte @ 30-fold Ki” value was found to be 1.47. This compound showed a pKi in test [3] of 8.52. Further, the pKi in test [3] (setting [4]) is 8.52.
For the compound `C[C@@H]1N=C(c2c(F)cccc2Cl)c2c(sc3c2C[C@@H](C(F)F)C3)-n2c(C3CC3)nnc21` [Example 11, (7S,13R)-9-(2-chloro-6-fluoro-phenyl)-3-cyclopropyl-13-(difluoromethyl)-7-methyl-16-thia-2,4,5,8-tetrazatetracyclo [8.6.0.02,6.011,15]hexadeca-1(10),3,5,8,11(15)-pentaene], in test [1], the pKi is 5.95, the “γ2/γ1 Selectivity Ratio” value is on record as 108.6 and the LogSel is given as 2.04. For the same compound, in test [2], the “Efficacy (GABA)%” value is listed as 44% and the “Fold increase h-GABA-A α2β2γ1 oocyte @ 30-fold Ki” value was found to be 1.44. Besides, the pKi in test [3] was 7.99. Also, in test [3] (setting [4]), the pKi is 7.99.
With `C[C@@H]1N=C(c2c(F)cccc2Cl)c2c(sc3c2C[C@@H](C(F)F)C3)-n2c(-c3cccnn3)nnc21` [Example 12, (7S,13R)-9-(2-chloro-6-fluoro-phenyl)-13-(difluoromethyl)-7-methyl-3-pyridazin-3-yl-16-thia-2,4,5,8-tetrazatetracyclo [8.6.0.02,6.011,15]hexadeca-1(10),3,5,8,11(15)-pentaene], in test [1], the negative logarithm of the Ki (pKi) is 5.63, the “γ2/γ1 Selectivity Ratio” value is listed as 176.0 and the LogSel came to 2.25. Further, in test [2], the “Efficacy (GABA)%” value stood at 62% and the “Fold increase h-GABA-A α2β2γ1 oocyte @ 30-fold Ki” value was determined as 1.62. In addition, the pKi in test [3] is 7.87. The pKi in test [3] (setting [4]) was 7.87.
In the case of `Cc1nnc2n1-c1sc3c(c1C(c1c(F)cccc1F)=N[C@H]2C)C[C@@H](C(F)(F)F)C3` [Example 13, (7S,13R)-9-(2,6-difluorophenyl)-3,7-dimethyl-13-(trifluoromethyl)-16-thia-2,4,5,8-tetrazatetracyclo [8.6.0.02,6.011,15]hexadeca-1(10),3,5,8,11(15)-pentaene], in test [1], the negative-log Ki (pKi) was 6.15, the “γ2/γ1 Selectivity Ratio” value is 43.5 and the LogSel is 1.64. Further, in test [2], the “Efficacy (GABA)%” value turned out to be 51% and the “Fold increase h-GABA-A α2β2γ1 oocyte @ 30-fold Ki” value is recorded as 1.51. In test [3], the pKi is 7.79. Moreover, the pKi in test [3] (setting [4]) is 7.79.
With `Cc1nnc2n1-c1sc3c(c1C(c1c(F)cccc1F)=NC2)C[C@@H](C)C3` [Example 14, (13R)-9-(2,6-difluorophenyl)-3,13-dimethyl-16-thia-2,4,5,8-tetrazatetracyclo [8.6.0.02,6.011,15]hexadeca-1(10),3,5,8,11(15)-pentaene], in test [1], the pKi was 7.00, the “γ2/γ1 Selectivity Ratio” value came out at 36.2 and the LogSel was determined as 1.56. In addition, in test [2], the “Efficacy (GABA)%” value was determined as 68% and the “Fold increase h-GABA-A α2β2γ1 oocyte @ 30-fold Ki” value is 1.68. The pKi in test [3] is 8.55. Further, in test [3] (setting [4]), the pKi was 8.55.
